Drawing on US20240124439A1, “Pyrido[2,3-D]Imidazole Derivatives and Their Use As Inhibitors of ITK for the Treatment of Skin Disease” (Pfizer Inc., priority 2020, published 2024), this text covers IC50 for 15 compounds.

The target of assay [1] is IL-2-Inducible T-Cell Kinase (ITK) (Homo sapiens (Human), UniProt Q08881). The assay is described as follows: ITK enzyme assay (IL-2-inducible T-cell kinase activity). The conditions noted are these: geometric mean of count n. It counts as biochemical. As to the method: ITK activity was determined by measuring the effect of a test compound in an ITK enzyme assay.
IL-2-Inducible T-Cell Kinase (ITK), sequence (Q08881 whole entry): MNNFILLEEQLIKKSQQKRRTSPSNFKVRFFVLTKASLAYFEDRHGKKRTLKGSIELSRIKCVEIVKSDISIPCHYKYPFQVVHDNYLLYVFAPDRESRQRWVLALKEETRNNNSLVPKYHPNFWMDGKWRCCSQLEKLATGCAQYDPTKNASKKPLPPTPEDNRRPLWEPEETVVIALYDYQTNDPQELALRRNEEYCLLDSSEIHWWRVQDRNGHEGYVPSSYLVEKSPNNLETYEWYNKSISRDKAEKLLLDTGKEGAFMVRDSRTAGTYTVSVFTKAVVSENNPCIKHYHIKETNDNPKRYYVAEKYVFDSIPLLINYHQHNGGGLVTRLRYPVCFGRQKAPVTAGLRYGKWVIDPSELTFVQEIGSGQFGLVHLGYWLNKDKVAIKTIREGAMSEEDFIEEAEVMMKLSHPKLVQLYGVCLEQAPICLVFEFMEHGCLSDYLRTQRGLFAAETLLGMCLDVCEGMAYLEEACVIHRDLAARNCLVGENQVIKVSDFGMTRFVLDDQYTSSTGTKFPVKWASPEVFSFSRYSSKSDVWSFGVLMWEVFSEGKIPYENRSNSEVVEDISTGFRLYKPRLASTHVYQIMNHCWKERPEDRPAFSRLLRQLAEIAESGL
1.0 M HEPES Buffer pH 7.5 solution was prepared as follows: 238.3 g HEPES free acid (Sigma) and 800 mL of water were combined, and the mixture was stirred until complete dissolution. The pH was adjusted to 7.5 via titration with 5N NaOH and the volume adjusted to 1000 mL. The solution was filtered and sterilized.
ITK assay buffer was prepared as follows: 50 mL of HPLC-grade water was treated with 2 mL of 1.0 M HEPES Buffer, 500 μL of 2% Gelatin (Sigma), 1.0 mL of aqueous MgCl2 solution (1.0 M), and 1.0 mL of aqueous glutathione solution (0.5 M), and the solution was mixed. The solution was brought to 99 mL in a graduated cylinder by addition of water and sterilized through a 0.2 μm filter. 0.1 mL of Brij-35™ Surfact-Amps™ Detergent Solution (10% w/v aqueous solution, ThermoFisher) and 1.0 mL of ATP (Teknova,100 mM) were added and the solution was mixed.
Preparation of 1.33× ITK enzyme solution was as follows: 49.99 mL of ITK assay buffer was treated with 4.1 μL of ITK enzyme (ITK FL (N-Flag and C-His tagged, […]) Lake Pharma, 0.25 mg/ml in a buffer containing 25 mM Tris pH 7.8, 150 mM NaCl, 10% glycerol and 2 mM TCEP) and the mixture was gently agitated. The resulting solution was stored on ice. 30 Minutes prior to use, the enzyme solution was removed from ice and equilibrated to RT by incubation in a RT water bath.
Preparation of 4× ITK substrate solution was as follows: 50 mL of ITK assay buffer was treated with 100 μL of BTK peptide (China Peptide Company, 2 mM stock solution in DMSO). The tube was capped, mixed by gently inverting the tube, and then stored on ice. 30 Minutes prior to use, the substrate solution was removed from ice and equilibrated to RT by incubation in a RT water bath.
At the time of assay, 7.5 μL of the 1.33× ITK enzyme solution was added to plate wells containing 0.1 μL of varying concentrations of test compound in DMSO. The plate was incubated 30 min at RT. The plate wells were each treated with 2.5 uL of the 4× ITK substrate solution and the plate was sealed (TopSeal™, Perkin Elmer). The plate was spun at 1000 rpm for 30 sec and then incubated for 60 min at RT. The seal was removed, and each well was treated with 10 μL of Stop/Detect Buffer (20 mM HEPES pH 7.5, 0.01% gelatin, 1 nM LANCE PT66 (Perkin Elmer), 16.5 μg/ml Surelight APC (Perkin Elmer), 10 mM EDTA, 250 mM NaCl). The plate was again covered and was spun at 1000 rpm for […]. The plate was allowed to incubate overnight at RT and in a closed carrier to reduce dehydration. The seal was removed, and the fluorescence was read with a plate reader with an excitation wavelength of […]. The concentrations and resulting effect values for the tested compound were plotted and the concentration of compound required for 50% effect (IC50) was determined with the four-parameter logistic dose response equation.

In assay [2] the test system is activated CD4+ human T-cells (IL-2). The assay is described as follows: IL-2 inhibition in supernatants from activated CD4+ human T-cells (cisbio HTRF). The conditions noted are these: T-cell; CD3/CD28-activated CD4+ human T cells, ImmunoCult stimulation 20 to 24 hrs; geometric mean of count n. The class given is cell-based. As for the experimental part:
IL-2 inhibition activity in supernatants from activated CD4+ human T-cells was determined by measuring the effect of a test compound on the activity using the cisbio HTRF™ technology.
Human CD4+ T cells were activated with CD3/CD28 for 3 days and expanded for an additional 4-6 days (7 to 9 days total). On day 0, frozen CD4+ T cells were thawed, treated with CD3/CD28 Dynabeads, and incubated at 37° C./5% CO2. On day 3, the beads were removed, and the cells were diluted to 5×10^5 cells/cm^2, placed in G-Rex10 flask, and incubated at 37° C./5% CO2. On day 7 to day 9 the cells were removed from the G-Rex flasks, counted and diluted back to 1×10^6 cells/ml in standard tissue culture flask.
The expanded CD4+ T-cells were centrifuged at 300×g for 10 minutes and resuspended to 0.5 million cells per ml (30,000 cells/well). 60 μl of CD4+ T cells were added per well to a 384 well plate containing 0.1 μL of varying concentrations of test compound in DMSO. The plates were incubated for 15 min at 37° C./5% CO2. 20 μl of diluted ImmunoCult™ (STEMCELL Technologies, 1:12.5 in T cell assay media) were added to all wells of the plate (1:50 final assay concentration). The plates were incubated for an additional 20 to 24 hrs at 37° C./5% CO2. The plates were centrifuged at 300×g for 10 minutes. 16 μL of supernatant was removed and combined with 4 μl of IL-2 HTRF Abs. (cisbio kit). Plates were incubated for 3 hours at RT and read with an EnVision plate reader at 665 nm and 615 nm wavelengths. The concentrations and resulting effect values for the tested compound were plotted and the concentration of compound required for 50% effect (IC50) was determined with the four-parameter logistic dose response equation.

Take `C[C@H](C(=O)N(C)c1cnc2[nH]c(-c3n[nH]c4c3C[C@@H]3C[C@]3(C)C4)nc2c1)N1CCCOCC1` [Example 44, (R)-N-Methyl-N-(2-((4aS,5aR)-5a-methyl-1,4,4a,5,5a,6-hexahydrocyclopropa[f]indazol-3-yl)-3H-imidazo[4,5-b]pyridin-6-yl)-2-(1,4-oxazepan-4-yl)propenamide]: the values for the IC50 in assay [1] and in assay [2] were 101 nM and 226 nM, respectively.

For `CN(C(=O)CC1CCCC1)c1cnc2nc(-c3n[nH]c4c3C[C@@H]3C[C@]3(C)C4)[nH]c2c1` [Example 45, 2-Cyclopentyl-N-methyl-N-(2-((4aS,5aR)-5a-methyl-1,4,4a,5,5a,6-hexahydrocyclopropa[f]indazol-3-yl)-1H-imidazo[4,5-b]pyridin-6-yl)acetamide], the IC50 stood at 25 nM in assay [1] and 117 nM in assay [2].

Regarding `CN(C(=O)C1CCOCC1)c1cnc2nc(-c3n[nH]c4c3C[C@@H]3C[C@]3(C)C4)[nH]c2c1` [Example 46, N-Methyl-N-(2-((4aS,5aR)-5a-methyl-1,4,4a,5,5a,6-hexahydrocyclopropa[f]indazol-3-yl)-1H-imidazo[4,5-b]pyridin-6-yl)tetrahydro-2H-pyran-4-carboxamide], the results for the IC50 in assay [1] and in assay [2] were 123 nM and 294 nM, respectively.

Turning to `CN(C(=O)C1CCCCC1)c1cnc2nc(-c3n[nH]c4c3C[C@@H]3C[C@]3(C)C4)[nH]c2c1` [Example 51, N-Methyl-N-(2-((4aS,5aR)-5a-methyl-1,4,4a,5,5a,6-hexahydrocyclopropa[f]indazol-3-yl)-1H-imidazo[4,5-b]pyridin-6-yl)cyclohexanecarboxamide], the IC50 came to 37 nM in assay [1] and 108 nM in assay [2].

In the case of `CN(C(=O)CC1CCOCC1)c1cnc2nc(-c3n[nH]c4c3C[C@@H]3C[C@]3(C)C4)[nH]c2c1` [Example 52, N-Methyl-N-(2-((4aS,5aR)-5a-methyl-1,4,4a,5,5a,6-hexahydrocyclopropa[f]indazol-3-yl)-1H-imidazo[4,5-b]pyridin-6-yl)-2-(tetrahydro-2H-pyran-4-yl)acetamide], the IC50 in assay [1] was found to be 51 nM; in assay [2], 189 nM.

Consider `CN(C(=O)C(C)(C)CN1CCOCC1)c1cnc2nc(-c3n[nH]c4c3C[C@@H]3C[C@]3(C)C4)[nH]c2c1` [Example 53, N,2,2-Trimethyl-N-(2-((4aS,5aR)-5a-methyl-1,4,4a,5,5a,6-hexahydrocyclopropa[f]indazol-3-yl)-1H-imidazo[4,5-b]pyridin-6-yl)-3-morpholinopropanamide], for which the IC50 in assay [1] was found to be 88 nM; in assay [2], 304 nM.

Turning to `CN(C(=O)C1C[C@@H]2[C@H](C1)C2(F)F)c1cnc2nc(-c3n[nH]c4c3C[C@@H]3C[C@]3(C)C4)[nH]c2c1` (stereo partly drawn) [Example 55, (1R,5S)-6,6-Difluoro-N-methyl-N-(2-((4aS,5aR)-5a-methyl-1,4,4a,5,5a,6-hexahydrocyclopropa[f]indazol-3-yl)-1H-imidazo[4,5-b]pyridin-6-yl)bicyclo[3.1.0]hexane-3-carboxamide], the IC50 stood at 20 nM in assay [1] and 93 nM in assay [2].

Consider `CN(C(=O)CN1CCOCC1=O)c1cnc2nc(-c3n[nH]c4c3C[C@@H]3C[C@]3(C)C4)[nH]c2c1` [Example 56, N-Methyl-N-(2-((4aS,5aR)-5a-methyl-1,4,4a,5,5a,6-hexahydrocyclopropa[f]indazol-3-yl)-1H-imidazo[4,5-b]pyridin-6-yl)-2-(3-oxomorpholino)acetamide], for which the concentration for half-maximal inhibition (IC50) in assay [1] was 54 nM; in assay [2], 611 nM.

In the case of `CN(C(=O)C12CC(F)(C1)C2)c1cnc2nc(-c3n[nH]c4c3C[C@@H]3C[C@]3(C)C4)[nH]c2c1` [Example 59], the 50% inhibitory concentration (IC50) in assay [1] came out at 109 nM; in assay [2], 370 nM.

Regarding `CN(C(=O)C(C)(C)C1CCOCC1)c1cnc2nc(-c3n[nH]c4c3CC3C[C@]3(C)C4)[nH]c2c1` (stereo partly drawn) [Example 60, N,2-Dimethyl-N-(2-((4aS,5aR)-5a-methyl-1,4,4a,5,5a,6-hexahydrocyclopropa[f]indazol-3-yl)-1H-imidazo[4,5-b]pyridin-6-yl)-2-(tetrahydro-2H-pyran-4-yl)propenamide], the half-inhibitory concentration (IC50) was found to be 63 nM in assay [1] and 182 nM in assay [2].

For `CN(C(=O)C1(C)CCC(F)(F)CC1)c1cnc2nc(-c3n[nH]c4c3C[C@@H]3C[C@]3(C)C4)[nH]c2c1` [Example 62, 4,4-Difluoro-N,1-dimethyl-N-(2-((4aS,5aR)-5a-methyl-1,4,4a,5,5a,6-hexahydrocyclopropa[f]indazol-3-yl)-1H-imidazo[4,5-b]pyridin-6-yl)cyclohexane-1-carboxamide], the IC50 in assay [1] is 141 nM; in assay [2] it was 402 nM.

Take `CN(C(=O)C1(C2CCC2)CCC1)c1cnc2nc(-c3n[nH]c4c3C[C@@H]3C[C@]3(C)C4)[nH]c2c1` [Example 63, N-Methyl-N-(2-((4aS,5aR)-5a-methyl-1,4,4a,5,5a,6-hexahydrocyclopropa[f]indazol-3-yl)-1H-imidazo[4,5-b]pyridin-6-yl)-[1,1′-bi(cyclobutane)]-1-carboxamide]: the IC50 in assay [1] came to 40 nM; in assay [2], 338 nM.

Regarding `CN(C(=O)[C@@H]1CCCCO1)c1cnc2nc(-c3n[nH]c4c3C[C@@H]3C[C@]3(C)C4)[nH]c2c1` [Example 64, (S)-N-Methyl-N-(2-((4aS,5aR)-5a-methyl-1,4,4a,5,5a,6-hexahydrocyclopropa[f]indazol-3-yl)-1H-imidazo[4,5-b]pyridin-6-yl)tetrahydro-2H-pyran-2-carboxamide], the values for the IC50 in assay [1] and in assay [2] were 103 nM and 208 nM, respectively.

As to `CCC1(C(=O)N(C)c2cnc3nc(-c4n[nH]c5c4C[C@@H]4C[C@]4(C)C5)[nH]c3c2)CCOCC1` [Example 65, 4-Ethyl-N-methyl-N-(2-((4aS,5aR)-5a-methyl-1,4,4a,5,5a,6-hexahydrocyclopropa[f]indazol-3-yl)-1H-imidazo[4,5-b]pyridin-6-yl)tetrahydro-2H-pyran-4-carboxamide], the results for the IC50 in assay [1] and in assay [2] were 150 nM and 568 nM, respectively.

As for `CN(C(=O)C1(C)CC(F)(F)C1)c1cnc2nc(-c3n[nH]c4c3C[C@@H]3C[C@]3(C)C4)[nH]c2c1` [Example 66, 3,3-Difluoro-N,1-dimethyl-N-(2-((4aS,5aR)-5a-methyl-1,4,4a,5,5a,6-hexahydrocyclopropa[f]indazol-3-yl)-1H-imidazo[4,5-b]pyridin-6-yl)cyclobutane-1-carboxamide], the IC50 in assay [1] came out at 92 nM; in assay [2], 292 nM.
